Test results reported in patent US20250289787A1, “HERBICIDAL 2-OXO-NICOTINIC ACID DERIVATIVES” (SYNGENTA CROP PROTECTION AG, priority 2022, published 2025).

Assays:
Assay type in all cases: in vivo
Design in all cases: key: 5=81-100%; 4=61-80%; 3=41-60%; 2=21-40%; 1=1-20%; 0=no damage to the plant; -=not tested
[1] = tested on: Amaranthus palmeri (AMAPA); assay: Pre-emergence test, herbicidal damage; conditions: 1000 g/ha unless otherwise stated, evaluated after 13 days, five-point scale
[2] = tested on: Amaranthus retoflexus (AMARE); assay: Pre-emergence test, herbicidal damage; conditions: 1000 g/ha unless otherwise stated, evaluated after 13 days, five-point scale
[3] = tested on: Echinochloa crus-galli (ECHCG); assay: Pre-emergence test, herbicidal damage; conditions: 1000 g/ha unless otherwise stated, evaluated after 13 days, five-point scale
Zea mays (ZEAMX) [4] = assay: Pre-emergence test, herbicidal damage; conditions: 1000 g/ha unless otherwise stated, evaluated after 13 days, five-point scale
[5] = tested on: Ipomoea hederacea (IPOHE); assay: Pre-emergence test, herbicidal damage; conditions: 1000 g/ha unless otherwise stated, evaluated after 13 days, five-point scale
Setaria faberi (SETFA) [6] = assay: Pre-emergence test, herbicidal damage; conditions: 1000 g/ha unless otherwise stated, evaluated after 13 days, five-point scale
[7] = tested on: Amaranthus palmeri (AMAPA); assay: Post-emergence test, herbicidal damage; conditions: sprayed after 8 days cultivation, 1000 g/ha unless otherwise stated, evaluated after 13 days, five-point scale
How it was run: (§1)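 Herbicidal effect is expressed as a score from 0 (no damage) to 5 (81–100% damage), assessed 13 days after spraying. Compound at 1000 g/ha in acetone/water with 0.5% Tween 20 is applied to pots kept at 24 °C/16 °C, 14 h photoperiod.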

[8] = tested on: Amaranthus retoflexus (AMARE); assay: Post-emergence test, herbicidal damage; conditions: sprayed after 8 days cultivation, 1000 g/ha unless otherwise stated, evaluated after 13 days, five-point scale
How it was run: as §1

[9] = tested on: Echinochloa crus-galli (ECHCG); assay: Post-emergence test, herbicidal damage; conditions: sprayed after 8 days cultivation, 1000 g/ha unless otherwise stated, evaluated after 13 days, five-point scale
How it was run: as §1

[10] = tested on: Ipomoea hederacea (IPOHE); assay: Post-emergence test, herbicidal damage; conditions: sprayed after 8 days cultivation, 1000 g/ha unless otherwise stated, evaluated after 13 days, five-point scale
How it was run: as §1

Setaria faberi (SETFA) [11] = assay: Post-emergence test, herbicidal damage; conditions: sprayed after 8 days cultivation, 1000 g/ha unless otherwise stated, evaluated after 13 days, five-point scale
How it was run: as §1

Zea mays (ZEAMX) [12] = assay: Post-emergence test, herbicidal damage; conditions: sprayed after 8 days cultivation, 1000 g/ha unless otherwise stated, evaluated after 13 days, five-point scale
How it was run: as §1

Row | Structure (SMILES) | percentage damage caused to the plant, AMAPA [1] | percentage damage caused to the plant, AMARE [2] | percentage damage caused to the plant, ECHCG [3] | percentage damage caused to the plant, ZEAMX (Zea mays (ZEAMX) [4]) | percentage damage caused to the plant, IPOHE [5] | percentage damage caused to the plant, SEFTA (Setaria faberi (SETFA) [6]) | percentage damage caused to the plant, AMAPA [7] | percentage damage caused to the plant, AMARE [8] | percentage damage caused to the plant, ECHCG [9] | percentage damage caused to the plant, IPOHE [10] | percentage damage caused to the plant, SEFTA (Setaria faberi (SETFA) [11]) | percentage damage caused to the plant, ZEAMX (Zea mays (ZEAMX) [12])
1 | Cc1c(C2CC2)c(-c2ccc(Cl)c(Cl)c2)c(C(=O)O)c(=O)n1Cc1ccc(Cl)cc1F [Compound 39, 1-[(4-chloro-2-fluoro-phenyl)methyl]-5-cyclopropyl-4-(3,4-dichlorophenyl)-6-methyl-2-oxo-pyridine-3-carboxylic acid] | 1 (1=1-20%) | 0 | 2 (2=21-40%) | 1 (1=1-20%) | 1 (1=1-20%) | 2 (2=21-40%) | 1 (1=1-20%) | 0 | 2 (2=21-40%) | 2 (2=21-40%) | 1 (1=1-20%) | 1 (1=1-20%)
2 | CC#Cc1c(-c2ccc(Cl)c(Cl)c2)c(C(=O)O)c(=O)n(-c2cc(F)cc(Cl)c2)c1C [Compound 40, 1-(3-chloro-5-fluoro-phenyl)-4-(3,4-dichlorophenyl)-6-methyl-2-oxo-5-prop-1-ynyl-pyridine-3-carboxylic acid] | 0 | 0 | 0 | 0 | 0 | 0 | 0 | 0 | 0 | 0 | 0 | 0
3 | Cc1c(O)c(-c2ccc(Cl)c(Cl)c2)c(C(=O)O)c(=O)n1-c1ccc(Cl)cc1F [Compound 42, 1-(4-chloro-2-fluoro-phenyl)-4-(3,4-dichlorophenyl)-5-hydroxy-6-methyl-2-oxo-pyridine-3-carboxylic acid] | 2 (2=21-40%) | 2 (2=21-40%) | 1 (1=1-20%) | 0 | 0 | 0 | 2 (2=21-40%) | 2 (2=21-40%) | 0 | 1 (1=1-20%) | 0 | 0
